{"source": "the supplement of paper PMC10307832", "data": [{"compound": "Cc1ccccc1C(C(=O)NC1CCCCC1)N(C(=O)Cn1ccnc1C)c1cccc(F)c1 [IDH-C35] + CS(=O)(=O)CCNCc1ccc(-c2ccc3ncnc(Nc4ccc(OCc5cccc(F)c5)c(Cl)c4)c3c2)o1 [Lapatinib] (partner 2 µM)", "experiment": "relative viability (nuclei count vs DMSO), 5 days (fraction); higher = more cells survive", "conditions": "first compound 0.08 µM", "in_short": "(§1)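 Relative viability equals treated-well nuclei counts divided by vehicle-well nuclei counts. Counts came from 4× images of lung cancer cell lines grown in 1536-well plates for 5 days after pin-tool dosing on the day after seeding. Dosing used one drug alone or a fixed anchor-drug dose plus five library-drug doses (not always all listed) in √10 steps, and values are medians of duplicate plates.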", "values": [{"cell line": "NCI-H2085", "relative viability": 0.834}, {"cell line": "Calu-6", "relative viability": 1.04}, {"cell line": "HCC-366", "relative viability": 1.12}, {"cell line": "NCI-H1666", "relative viability": 0.599}, {"cell line": "NCI-H596", "relative viability": 1.01}, {"cell line": "LK-2", "relative viability": 0.836}, {"cell line": "NCI-H2087", "relative viability": 1.04}, {"cell line": "SK-MES-1", "relative viability": 0.435}, {"cell line": "H3255", "relative viability": 0.246}, {"cell line": "COR-L23", "relative viability": 1.05}, {"cell line": "COR-L 105", "relative viability": 0.33}, {"cell line": "IA-LM", "relative viability": 0.721}, {"cell line": "LOU-NH91", "relative viability": 0.798}, {"cell line": "NCI-H2170", "relative viability": 0.254}, {"cell line": "NCI-H2405", "relative viability": 1.1}, {"cell line": "HOP-62", "relative viability": 0.945}, {"cell line": "HCC-44", "relative viability": 0.946}, {"cell line": "A549", "relative viability": 0.956}, {"cell line": "LU99A", "relative viability": 1.08}, {"cell line": "BEN", "relative viability": 0.796}, {"cell line": "HARA", "relative viability": 0.784}, {"cell line": "HCC-78", "relative viability": 1.02}, {"cell line": "NCI-H322M", "relative viability": 0.541}, {"cell line": "LCLC-97TM1", "relative viability": 0.672}, {"cell line": "NCI-H2009", "relative viability": 1}, {"cell line": "A-427", "relative viability": 1.03}, {"cell line": "NCI-H661", "relative viability": 0.634}, {"cell line": "NCI-H1734", "relative viability": 1.05}, {"cell line": "NCI-H460", "relative viability": 1.19}, {"cell line": "NCI-H2347", "relative viability": 0.99}, {"cell line": "SK-LU-1", "relative viability": 0.918}]}, {"compound": "Cc1ccccc1C(C(=O)NC1CCCCC1)N(C(=O)Cn1ccnc1C)c1cccc(F)c1 [IDH-C35] + CS(=O)(=O)CCNCc1ccc(-c2ccc3ncnc(Nc4ccc(OCc5cccc(F)c5)c(Cl)c4)c3c2)o1 [Lapatinib] (partner 2 µM)", "experiment": "relative viability (nuclei count vs DMSO), 5 days (fraction); higher = more cells survive", "conditions": "first compound 0.253 µM", "in_short": "as §1", "values": [{"cell line": "NCI-H2085", "relative viability": 0.741}, {"cell line": "Calu-6", "relative viability": 1.04}, {"cell line": "HCC-366", "relative viability": 1.03}, {"cell line": "NCI-H1666", "relative viability": 0.523}, {"cell line": "NCI-H596", "relative viability": 1.04}, {"cell line": "LK-2", "relative viability": 1.01}, {"cell line": "NCI-H2087", "relative viability": 1.06}, {"cell line": "SK-MES-1", "relative viability": 0.49}, {"cell line": "H3255", "relative viability": 0.244}, {"cell line": "COR-L23", "relative viability": 1.09}, {"cell line": "COR-L 105", "relative viability": 0.359}, {"cell line": "IA-LM", "relative viability": 1.03}, {"cell line": "LOU-NH91", "relative viability": 0.813}, {"cell line": "NCI-H2170", "relative viability": 0.259}, {"cell line": "NCI-H2405", "relative viability": 1.2}, {"cell line": "HOP-62", "relative viability": 1.06}, {"cell line": "HCC-44", "relative viability": 1.02}, {"cell line": "A549", "relative viability": 1}, {"cell line": "LU99A", "relative viability": 0.909}, {"cell line": "BEN", "relative viability": 0.805}, {"cell line": "HARA", "relative viability": 0.84}, {"cell line": "HCC-78", "relative viability": 0.732}, {"cell line": "NCI-H322M", "relative viability": 0.59}, {"cell line": "LCLC-97TM1", "relative viability": 0.825}, {"cell line": "NCI-H2009", "relative viability": 0.928}, {"cell line": "A-427", "relative viability": 0.978}, {"cell line": "NCI-H661", "relative viability": 0.447}, {"cell line": "NCI-H1734", "relative viability": 1.18}, {"cell line": "NCI-H460", "relative viability": 1.11}, {"cell line": "NCI-H2347", "relative viability": 0.969}, {"cell line": "SK-LU-1", "relative viability": 0.856}]}, {"compound": "Cc1ccccc1C(C(=O)NC1CCCCC1)N(C(=O)Cn1ccnc1C)c1cccc(F)c1 [IDH-C35] + CS(=O)(=O)CCNCc1ccc(-c2ccc3ncnc(Nc4ccc(OCc5cccc(F)c5)c(Cl)c4)c3c2)o1 [Lapatinib] (partner 2 µM)", "experiment": "relative viability (nuclei count vs DMSO), 5 days (fraction); higher = more cells survive", "conditions": "first compound 0.8 µM", "in_short": "as §1", "values": [{"cell line": "NCI-H2085", "relative viability": 0.764}, {"cell line": "Calu-6", "relative viability": 1.03}, {"cell line": "HCC-366", "relative viability": 1.04}, {"cell line": "NCI-H1666", "relative viability": 0.481}, {"cell line": "NCI-H596", "relative viability": 1.11}, {"cell line": "LK-2", "relative viability": 0.758}, {"cell line": "NCI-H2087", "relative viability": 0.867}, {"cell line": "SK-MES-1", "relative viability": 0.446}, {"cell line": "H3255", "relative viability": 0.283}, {"cell line": "COR-L23", "relative viability": 0.932}, {"cell line": "COR-L 105", "relative viability": 0.337}, {"cell line": "IA-LM", "relative viability": 0.721}, {"cell line": "LOU-NH91", "relative viability": 0.776}, {"cell line": "NCI-H2170", "relative viability": 0.28}, {"cell line": "NCI-H2405", "relative viability": 1.09}, {"cell line": "HOP-62", "relative viability": 1.01}, {"cell line": "HCC-44", "relative viability": 0.979}, {"cell line": "A549", "relative viability": 0.988}, {"cell line": "LU99A", "relative viability": 0.938}, {"cell line": "BEN", "relative viability": 0.724}, {"cell line": "HARA", "relative viability": 0.828}, {"cell line": "HCC-78", "relative viability": 0.841}, {"cell line": "NCI-H322M", "relative viability": 0.625}, {"cell line": "LCLC-97TM1", "relative viability": 1.1}, {"cell line": "NCI-H2009", "relative viability": 0.908}, {"cell line": "A-427", "relative viability": 0.942}, {"cell line": "NCI-H661", "relative viability": 0.362}, {"cell line": "NCI-H1734", "relative viability": 1.06}, {"cell line": "NCI-H460", "relative viability": 0.978}, {"cell line": "NCI-H2347", "relative viability": 0.914}, {"cell line": "SK-LU-1", "relative viability": 0.871}]}, {"compound": "Cc1ccccc1C(C(=O)NC1CCCCC1)N(C(=O)Cn1ccnc1C)c1cccc(F)c1 [IDH-C35] + CS(=O)(=O)CCNCc1ccc(-c2ccc3ncnc(Nc4ccc(OCc5cccc(F)c5)c(Cl)c4)c3c2)o1 [Lapatinib] (partner 2 µM)", "experiment": "relative viability (nuclei count vs DMSO), 5 days (fraction); higher = more cells survive", "conditions": "first compound 2.53 µM", "in_short": "as §1", "values": [{"cell line": "NCI-H2085", "relative viability": 0.848}, {"cell line": "Calu-6", "relative viability": 1.06}, {"cell line": "HCC-366", "relative viability": 1.08}, {"cell line": "NCI-H1666", "relative viability": 0.736}, {"cell line": "NCI-H596", "relative viability": 1.16}, {"cell line": "LK-2", "relative viability": 0.735}, {"cell line": "NCI-H2087", "relative viability": 1.07}, {"cell line": "SK-MES-1", "relative viability": 0.481}, {"cell line": "H3255", "relative viability": 0.304}, {"cell line": "COR-L23", "relative viability": 1}, {"cell line": "COR-L 105", "relative viability": 0.34}, {"cell line": "IA-LM", "relative viability": 0.809}, {"cell line": "LOU-NH91", "relative viability": 0.749}, {"cell line": "NCI-H2170", "relative viability": 0.274}, {"cell line": "HCC-44", "relative viability": 1.04}, {"cell line": "A549", "relative viability": 0.947}, {"cell line": "LU99A", "relative viability": 0.984}, {"cell line": "BEN", "relative viability": 0.718}, {"cell line": "HARA", "relative viability": 0.78}, {"cell line": "HCC-78", "relative viability": 0.606}, {"cell line": "NCI-H322M", "relative viability": 0.529}, {"cell line": "NCI-H2009", "relative viability": 0.639}, {"cell line": "A-427", "relative viability": 1.02}, {"cell line": "NCI-H661", "relative viability": 0.519}, {"cell line": "NCI-H1734", "relative viability": 0.94}, {"cell line": "NCI-H460", "relative viability": 0.888}, {"cell line": "NCI-H2347", "relative viability": 0.902}, {"cell line": "SK-LU-1", "relative viability": 0.976}]}, {"compound": "Cc1ccccc1C(C(=O)NC1CCCCC1)N(C(=O)Cn1ccnc1C)c1cccc(F)c1 [IDH-C35] + CS(=O)(=O)CCNCc1ccc(-c2ccc3ncnc(Nc4ccc(OCc5cccc(F)c5)c(Cl)c4)c3c2)o1 [Lapatinib] (partner 2 µM)", "experiment": "relative viability (nuclei count vs DMSO), 5 days (fraction); higher = more cells survive", "conditions": "first compound 8 µM", "in_short": "as §1", "values": [{"cell line": "NCI-H2085", "relative viability": 0.728}, {"cell line": "Calu-6", "relative viability": 1.01}, {"cell line": "HCC-366", "relative viability": 1.12}, {"cell line": "NCI-H1666", "relative viability": 0.605}, {"cell line": "NCI-H596", "relative viability": 1.06}, {"cell line": "LK-2", "relative viability": 0.932}, {"cell line": "NCI-H2087", "relative viability": 0.834}, {"cell line": "SK-MES-1", "relative viability": 0.413}, {"cell line": "H3255", "relative viability": 0.414}, {"cell line": "COR-L23", "relative viability": 0.938}, {"cell line": "COR-L 105", "relative viability": 0.369}, {"cell line": "IA-LM", "relative viability": 0.535}, {"cell line": "LOU-NH91", "relative viability": 0.767}, {"cell line": "NCI-H2170", "relative viability": 0.272}, {"cell line": "NCI-H2405", "relative viability": 0.957}, {"cell line": "HOP-62", "relative viability": 0.948}, {"cell line": "HCC-44", "relative viability": 1.02}, {"cell line": "A549", "relative viability": 1.03}, {"cell line": "LU99A", "relative viability": 1.12}, {"cell line": "BEN", "relative viability": 0.865}, {"cell line": "HARA", "relative viability": 0.809}, {"cell line": "HCC-78", "relative viability": 0.355}, {"cell line": "NCI-H322M", "relative viability": 0.608}, {"cell line": "LCLC-97TM1", "relative viability": 0.869}, {"cell line": "NCI-H2009", "relative viability": 0.729}, {"cell line": "A-427", "relative viability": 1.03}, {"cell line": "NCI-H661", "relative viability": 0.351}, {"cell line": "NCI-H1734", "relative viability": 1.02}, {"cell line": "NCI-H460", "relative viability": 0.963}, {"cell line": "NCI-H2347", "relative viability": 0.804}, {"cell line": "SK-LU-1", "relative viability": 0.82}]}, {"compound": "CC1=C(C(=NN1)C)CC2=C(C3=C(S2)N(C(=O)N(C3=O)C)CC(C)C)C(=O)N4C[C@@H](CO4)O + CS(=O)(=O)N1CCN(Cc2cc3nc(-c4cccc5[nH]ncc45)nc(N4CCOCC4)c3s2)CC1 [Pictilisib] (partner 1 µM)", "experiment": "relative viability (nuclei count vs DMSO), 5 days (fraction); higher = more cells survive", "conditions": "first compound 0.0025 µM", "in_short": "as §1", "values": [{"cell line": "NCI-H2085", "relative viability": 0.527}]}]}
